Measured values published in PubChem BioAssay (NCI).
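Five compound concentrations were applied to cells in 96-well plates for 48 hours; endpoints were derived by simple linear interpolation of the resulting dose-response curve. TGI denotes the concentration required for complete inhibition of growth.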

What was measured:
Test in all cases: DTP human tumour cell line panel, 48 h
786-0 renal = test system: 786-0 renal
A498 renal = test system: A498 renal
A549 NSCLC = test system: A549 NSCLC
ACHN renal = test system: ACHN renal
BT-549 breast = test system: BT-549 breast
CAKI-1 renal = test system: CAKI-1 renal
CCRF-CEM leukemia = test system: CCRF-CEM leukemia
COLO 205 colon = test system: COLO 205 colon
DU-145 prostate = test system: DU-145 prostate
EKVX NSCLC = test system: EKVX NSCLC
HCC-2998 colon = test system: HCC-2998 colon
HCT-116 colon = test system: HCT-116 colon
HCT-15 colon = test system: HCT-15 colon
HL-60(TB) leukemia = test system: HL-60(TB) leukemia
HOP-62 NSCLC = test system: HOP-62 NSCLC
HOP-92 NSCLC = test system: HOP-92 NSCLC
HS 578T breast = test system: HS 578T breast
HT29 colon = test system: HT29 colon
IGROV1 ovarian = test system: IGROV1 ovarian
K-562 leukemia = test system: K-562 leukemia
KM12 colon = test system: KM12 colon
LOX IMVI melanoma = test system: LOX IMVI melanoma
M14 melanoma = test system: M14 melanoma
MALME-3M melanoma = test system: MALME-3M melanoma
MCF7 breast = test system: MCF7 breast
MDA-MB-231 breast = test system: MDA-MB-231 breast
MDA-MB-435 = test system: MDA-MB-435
MDA-N = test system: MDA-N
MOLT-4 leukemia = test system: MOLT-4 leukemia
NCI-H226 lung = test system: NCI-H226 lung
NCI-H23 lung = test system: NCI-H23 lung
NCI-H460 lung = test system: NCI-H460 lung
NCI-H522 lung = test system: NCI-H522 lung
OVCAR-3 ovarian = test system: OVCAR-3 ovarian
OVCAR-4 ovarian = test system: OVCAR-4 ovarian
OVCAR-5 ovarian = test system: OVCAR-5 ovarian
OVCAR-8 ovarian = test system: OVCAR-8 ovarian
PC-3 prostate = test system: PC-3 prostate
RPMI-8226 leukemia = test system: RPMI-8226 leukemia
SF-268 CNS = test system: SF-268 CNS
SF-295 CNS = test system: SF-295 CNS
SF-539 CNS = test system: SF-539 CNS
SK-MEL-2 melanoma = test system: SK-MEL-2 melanoma
SK-MEL-28 melanoma = test system: SK-MEL-28 melanoma
SK-MEL-5 melanoma = test system: SK-MEL-5 melanoma
SK-OV-3 ovarian = test system: SK-OV-3 ovarian
SN12C renal = test system: SN12C renal
SNB-19 CNS = test system: SNB-19 CNS
SNB-75 CNS = test system: SNB-75 CNS
SR leukemia = test system: SR leukemia
SW-620 colon = test system: SW-620 colon
T-47D breast = test system: T-47D breast
TK-10 renal = test system: TK-10 renal
U251 CNS = test system: U251 CNS
UACC-257 melanoma = test system: UACC-257 melanoma
UACC-62 melanoma = test system: UACC-62 melanoma
NCI/ADR-RES ovarian = test system: NCI/ADR-RES ovarian
UO-31 renal = test system: UO-31 renal

With `O=C(c1ccccn1)c1nnn2ccccc12` the TGI (786-0 renal) was greater than 100 µM, the TGI (A498 renal) was greater than 100 µM and the TGI (A549 NSCLC) was greater than 100 µM. It also gave a TGI (ACHN renal) greater than 100 µM, a TGI (BT-549 breast) greater than 100 µM and a TGI (CAKI-1 renal) greater than 100 µM. It also gave a TGI (CCRF-CEM leukemia) greater than 100 µM, a TGI (COLO 205 colon) greater than 100 µM and a TGI (DU-145 prostate) greater than 100 µM. For the same compound, the TGI (EKVX NSCLC) was greater than 100 µM, the TGI (HCC-2998 colon) was greater than 100 µM and the TGI (HCT-116 colon) was greater than 100 µM. For the same compound, the TGI (HCT-15 colon) was greater than 100 µM, the TGI (HL-60(TB) leukemia) was greater than 100 µM and the TGI (HOP-62 NSCLC) was greater than 100 µM. The TGI (HOP-92 NSCLC) was greater than 100 µM, the TGI (HS 578T breast) was greater than 100 µM and the TGI (HT29 colon) was greater than 100 µM. It also gave a TGI (IGROV1 ovarian) greater than 100 µM, a TGI (K-562 leukemia) greater than 100 µM and a TGI (KM12 colon) greater than 100 µM. For the same compound, the TGI (LOX IMVI melanoma) was greater than 100 µM, the TGI (M14 melanoma) was greater than 100 µM and the TGI (MALME-3M melanoma) was greater than 100 µM. For the same compound, the TGI (MCF7 breast) was greater than 100 µM, the TGI (MDA-MB-231 breast) was greater than 100 µM and the TGI (MDA-MB-435) was greater than 100 µM. For the same compound, the TGI (MDA-N) was greater than 100 µM, the TGI (MOLT-4 leukemia) was greater than 100 µM and the TGI (NCI-H226 lung) was greater than 100 µM. For the same compound, the TGI (NCI-H23 lung) was greater than 100 µM, the TGI (NCI-H460 lung) was greater than 100 µM and the TGI (NCI-H522 lung) was greater than 100 µM. The TGI (OVCAR-3 ovarian) was greater than 100 µM, the TGI (OVCAR-4 ovarian) was greater than 100 µM and the TGI (OVCAR-5 ovarian) was greater than 100 µM. The TGI (OVCAR-8 ovarian) was greater than 100 µM, the TGI (PC-3 prostate) was greater than 100 µM and the TGI (RPMI-8226 leukemia) was greater than 100 µM. For the same compound, the TGI (SF-268 CNS) was greater than 100 µM, the TGI (SF-295 CNS) was greater than 100 µM and the TGI (SF-539 CNS) was greater than 100 µM. The TGI (SK-MEL-2 melanoma) was greater than 100 µM, the TGI (SK-MEL-28 melanoma) was greater than 100 µM and the TGI (SK-MEL-5 melanoma) was greater than 100 µM. It also gave a TGI (SK-OV-3 ovarian) greater than 100 µM, a TGI (SN12C renal) greater than 100 µM and a TGI (SNB-19 CNS) greater than 100 µM. For the same compound, the TGI (SNB-75 CNS) was greater than 100 µM, the TGI (SR leukemia) was greater than 100 µM and the TGI (SW-620 colon) was greater than 100 µM. It also gave a TGI (T-47D breast) greater than 100 µM, a TGI (TK-10 renal) greater than 100 µM and a TGI (U251 CNS) greater than 100 µM. It also gave a TGI (UACC-257 melanoma) greater than 100 µM and a TGI (UACC-62 melanoma) greater than 100 µM.

Compound `O=C(O)Cn1nnc2c(=O)[nH][nH]c(=O)c21` has a TGI (786-0 renal) greater than 100 µM, a TGI (A549 NSCLC) greater than 100 µM and a TGI (ACHN renal) greater than 100 µM. For the same compound, the TGI (BT-549 breast) was greater than 100 µM, the TGI (CAKI-1 renal) was greater than 100 µM and the TGI (CCRF-CEM leukemia) was greater than 100 µM. The TGI (COLO 205 colon) was greater than 100 µM, the TGI (DU-145 prostate) was greater than 100 µM and the TGI (EKVX NSCLC) was greater than 100 µM. The TGI (HCC-2998 colon) was greater than 100 µM, the TGI (HCT-116 colon) was greater than 100 µM and the TGI (HCT-15 colon) was greater than 100 µM. It also gave a TGI (HL-60(TB) leukemia) greater than 100 µM, a TGI (HOP-62 NSCLC) greater than 100 µM and a TGI (HOP-92 NSCLC) greater than 100 µM. The TGI (HT29 colon) was greater than 100 µM, the TGI (K-562 leukemia) was greater than 10 µM and the TGI (KM12 colon) was greater than 100 µM. For the same compound, the TGI (LOX IMVI melanoma) was greater than 100 µM, the TGI (M14 melanoma) was greater than 100 µM and the TGI (MALME-3M melanoma) was greater than 100 µM. For the same compound, the TGI (MCF7 breast) was greater than 100 µM, the TGI (MDA-MB-231 breast) was greater than 100 µM and the TGI (MDA-MB-435) was greater than 100 µM. The TGI (MDA-N) was greater than 100 µM, the TGI (MOLT-4 leukemia) was greater than 10 µM and the TGI (NCI-H23 lung) was greater than 100 µM. The TGI (NCI-H460 lung) was greater than 100 µM, the TGI (NCI/ADR-RES ovarian) was greater than 100 µM and the TGI (OVCAR-3 ovarian) was greater than 100 µM. It also gave a TGI (OVCAR-4 ovarian) greater than 10 µM, a TGI (OVCAR-5 ovarian) greater than 100 µM and a TGI (OVCAR-8 ovarian) greater than 100 µM. For the same compound, the TGI (RPMI-8226 leukemia) was greater than 100 µM, the TGI (SF-295 CNS) was greater than 100 µM and the TGI (SK-MEL-2 melanoma) was greater than 100 µM. For the same compound, the TGI (SK-MEL-28 melanoma) was greater than 100 µM, the TGI (SK-MEL-5 melanoma) was greater than 100 µM and the TGI (SN12C renal) was greater than 100 µM. For the same compound, the TGI (SNB-19 CNS) was greater than 100 µM, the TGI (SR leukemia) was greater than 100 µM and the TGI (TK-10 renal) was greater than 100 µM. For the same compound, the TGI (U251 CNS) was greater than 100 µM, the TGI (UACC-257 melanoma) was greater than 100 µM and the TGI (UO-31 renal) was greater than 100 µM.
